Reference: paper PMC5429621 (Scientific Reports, 2017)

How the values were obtained:
[1] = test system: hP2X7-2Nβ 74–79 C mutants; assay: two-electrode voltage clamp, Xenopus oocytes; format: cell-based, human; settings: response to EC90 ATP
From the text: The hP2X1R was a gift from Dr Lin-Hua Jiang (University of Leeds, UK) and the hP2X1R cDNA has been described previously. Chimeras were generated by megaprimer-mediated domain swapping. In addition to chimeras, point mutations, deletions and insertions were made using the QuikChange (Stratagene) or Q5 (New England Bioscience) mutagenesis kits. The production of the correct mutations and absence of coding errors was verified by DNA sequencing (Automated ABI Sequencing Service, University of Leicester, UK).
P2XR constructs were transcribed to produce sense-strand cRNA (mMessage mMachine, Ambion, Austin, TX). […]
Two-electrode voltage clamp recordings were carried out using a GeneClamp 500B amplifier with a Digidata 1322 A analog to digital convertor and pCLAMP 8.2 acquisition software (Molecular Devices, Menolo Park, CA) at a holding potential of −60 mV. ATP (sodium salt, Sigma) was applied via a U-tube perfusion system for 3 s at 3–5 minute intervals to allow reproducible responses to be recorded. […]
Concentration response curves were normalized to the maximal response and fitted with the Hill equation (variable slope) with GraphPad Prism 6 (Graphpad software, San Diego, CA). […] Any significant differences were calculated by one-way analysis of variance, followed by Bonferroni’s test (using GraphPad Prism 6). […]

other P2XR subtypes = settings: cited from earlier work
tumour growth = test system: tumour growth; set-up: method as in PMID 22505653; settings: cited from earlier work

Cl.Cl.O=C(CC12CC3CC(CC(C3)C1)C2)Nc1cccc2nc(NCCNCCO)ccc12 [AZ10606120, N-[2-[[2-[(2-Hydroxyethyl)amino]ethyl]amino]-5-quinolinyl]-2-tricyclo[3.3.1.13,7]dec-1-ylacetamide dihydrochloride]
level of inhibition to 30 nM AZ10606120 [1]: ~ 70% | effect at other P2XR subtypes (other P2XR subtypes): little or no effect | effect of AZ10606120 treatment in animal studies (tumour) (tumour growth): reduced tumour growth
